Test: Inhibition of Folyl-polyglutamate synthase from mouse liver

| SMILES | Ki [µM] |
| --- | --- |
| Nc1nc(N)c2nc(CNc3ccc(C(=O)NC(CCS(=O)(=O)O)C(=O)O)cc3)cnc2n1 (stereo not drawn) [2-{4-[(2,4-Diamino-pteridin-6-ylmethyl)-amino]-benzoylamino}-4-sulfo-butyric acid] | 45 |
| CN(Cc1cnc2nc(N)nc(N)c2n1)c1ccc(C(=O)NC(CCP(=O)(O)O)C(=O)O)cc1 (stereo not drawn) [2-{4-[(2,4-Diamino-pteridin-6-ylmethyl)-methyl-amino]-benzoylamino}-4-phosphono-butyric acid] | 185 |
| CN(Cc1cnc2nc(N)nc(N)c2n1)c1ccc(C(=O)NC(CCS(=O)(=O)O)C(=O)O)cc1 (stereo not drawn) [2-{4-[(2,4-Diamino-pteridin-6-ylmethyl)-methyl-amino]-benzoylamino}-4-sulfo-butyric acid] | 188 |
